Here are results for 1 molecule from PMC9007350, “Aurintricarboxylic acid is a canonical disruptor of the TAZ-TEAD transcriptional complex” (PLoS ONE, 2022).

The structures appear in SMILES notation.

Assay [1] deals with T1, TEAD4 (Homo sapiens, UniProt Q15561).
T1 construct: ThermoFluor assays measuring the melting temperatures (Tm) of full-length TAZ or TEAD in the presence of ATA; strep (N, cleaved yes); made in house; host or cells: Escherichia coli BL21(DE3)pLysS
The experiment in a line: ThermoFluor assay, TEAD. The assay is classed as binding. The settings on record: protein 5 μM. How it is done:
To assess changes in protein stability, a dye-based thermal melting assay (ThermoFluor) was used. Purified protein (TAZ or TEAD4), ATA, and Protein Thermal Shift dye (ThermoFisher) were mixed in 96-well plates. The final concentration of the protein was 5 μM. The melting temperature was measured using LightCycler 480 (Roche). Each experiment was repeated at least twice.
(In general: DSF heats the sample and reads unfolding from a dye or from intrinsic fluorescence.)

In assay [2] the test system is CYR61, CTGF, AMOTL2 and ANKRD1 transcripts in TC-expressing NIH3T3 cells. The experiment in a line: qPCR of canonical TAZ target genes. The assay is classed as cell-based, murine. The settings on record: ATA 10 μM, 48 h. How it is done:
NIH3T3 and HEK293 cells were obtained from the American Type Tissue Collection (ATCC, Manassas, VA) and cultured in DMEM containing 10% fetal bovine serum and penicillin/streptomycin. A TEAD dual luciferase reporter assay was performed as previously described. Cells were treated with vehicle control or ATA (10 μM) for 48 h before measuring the luciferase activity or processing the samples for RNA extraction. Each experiment was repeated at least 2-3 times. NIH3T3 cells were used. The extracted RNA (RNeasy Mini, Qiagen) from treated cells was either used for qPCR measurements or sent for bulk RNA-Seq. Sequencing runs were performed on an Illumina HiSeq 4000 sequencer (Genewiz). […] Paired end reads were aligned to the murine genome ([…]2 [27]. Raw count files were generated with featureCounts using a corresponding GTF reference. Differential gene expression analysis was performed with DESeq2 [29]. Transcripts were considered to be differentially expressed if the false discovery rate < 0.05 and Log2FC > 2. When performing differential gene expression for GSEA analysis, the Limma package was used (<5 CPM filtering) with t-scores used for rank statistics. GSEA plots and statistics were generated with FGSEA with custom gene sets. Raw sequencing reads and processed files have been deposited in the GEO repository (data will be uploaded upon manuscript acceptance). […]
(Quantitative PCR measures a nucleic acid by following its amplification.)

Assay [3] has as its target T2, VGLL1-TEAD complex (mouse Vgll1 (26-51) probe, human TEAD4 (217-434)) (Homo sapiens, UniProt Q15561).
T2 construct: made in house
The experiment in a line: Vgll1-TEAD fluorescence polarization assay. It counts as binding. The settings on record: TEAD4 350 nM, Vgll1 probe 25 nM. How it is done:
Human YAP (61–100), human TAZ (23–57) and mouse Vgll1 (26–51) peptide probes were used; all the probes had carboxyfluorescein labels. Human TEAD4 (217–434) was used in the assay at a concentration of 350 nM and the peptide probe concentration was 25 nM. Disruptors were titrated at concentrations ranging from 0–150 μM to the probe-TEAD complex, and the mixtures were incubated at 25°C for 20 min. Then, polarization measurements were taken using a Victor3 (PerkinElmer) plate reader.
In general terms: Polarisation of emitted light reports the rotation of a fluorescent probe.

Assay [4] has as its system NIH3T3 cells expressing TAZ-CAMTA1. The experiment in a line: Soft agar colony growth assay, TAZ-CAMTA1. The assay is classed as cell-based. How it is done: Soft agar colony growth assay was performed as previously described. The colonies were counted using Image-Pro Plus 7.0 software (Media Cybernetics). ATA cytotoxicity was assessed using the CyQUANT LDH Cytotoxicity Assay Kit (ThermoFisher) and was performed as per the manufacturer’s protocol.

T1 sequence (Q15561 whole entry): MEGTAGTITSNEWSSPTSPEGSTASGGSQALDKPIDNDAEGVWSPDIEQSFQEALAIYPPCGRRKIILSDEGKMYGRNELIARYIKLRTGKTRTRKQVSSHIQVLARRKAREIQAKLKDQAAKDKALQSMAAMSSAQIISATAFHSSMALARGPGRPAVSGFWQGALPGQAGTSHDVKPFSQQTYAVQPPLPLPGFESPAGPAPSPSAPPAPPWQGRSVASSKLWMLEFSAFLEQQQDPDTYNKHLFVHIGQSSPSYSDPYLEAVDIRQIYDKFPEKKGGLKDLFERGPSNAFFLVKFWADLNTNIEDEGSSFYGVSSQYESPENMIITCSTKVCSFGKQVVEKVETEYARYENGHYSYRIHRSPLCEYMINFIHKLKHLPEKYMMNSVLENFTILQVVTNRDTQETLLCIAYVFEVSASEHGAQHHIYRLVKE
T2 sequence (Q15561 217-434, one chain of several): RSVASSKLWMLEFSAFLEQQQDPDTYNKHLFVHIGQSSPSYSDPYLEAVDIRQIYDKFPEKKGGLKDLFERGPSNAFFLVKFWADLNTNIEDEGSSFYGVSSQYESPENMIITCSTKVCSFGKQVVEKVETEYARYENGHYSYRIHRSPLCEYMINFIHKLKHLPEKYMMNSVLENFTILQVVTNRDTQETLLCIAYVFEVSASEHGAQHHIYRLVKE

`O=C(O)C1=CC(=C(c2ccc(O)c(C(=O)O)c2)c2ccc(O)c(C(=O)O)c2)C=CC1=O` [ATA, aurintricarboxylic acid]: in assay [1] (TAZ or TEAD), the “shift in Tm in the ThermoFluor assay (in words)” value was “increased the Tm”. Further, in assay [1] (full-length TEAD), the “melting temperature (Tm) of TEAD + ATA” value was 54.8 °C. In addition, the “transcripts of canonical TAZ target genes (CYR61, CTGF, AMOTL2, ANKRD1) by qPCR” value in assay [2] is listed as “suppression of these transcripts”. Further, the “disruption of the VGLL1-TEAD interaction (in words)” value in assay [3] is recorded as “ineffective”. The “TC-driven soft agar colony growth” value in assay [4] was “dose-dependent reduction”.
